# Publication PMC9635925, “Biological screening of a unique drug library targeting MRGPRX2” (Frontiers in Immunology, 2022)
# Residue numbers refer to the chain shown, from its start. Structures can show the parent of a compound that is named as a salt.
# What was measured:
# [1] = biological target: T1, MRGPRX2-WT (wild-type MRGPRX2 receptor) (Homo sapiens, UniProt Q96LB1); assay: Primary HTS, Ca2+ mobilization (fluorescence ratio, B-score) in HEK293-Gα15 cells stably expressing wild-type MRGPRX2; format: cell-based; settings: 10 μM compound
# T1 construct: expressed in transfected cells
# T1 sequence (Q96LB1 1-330): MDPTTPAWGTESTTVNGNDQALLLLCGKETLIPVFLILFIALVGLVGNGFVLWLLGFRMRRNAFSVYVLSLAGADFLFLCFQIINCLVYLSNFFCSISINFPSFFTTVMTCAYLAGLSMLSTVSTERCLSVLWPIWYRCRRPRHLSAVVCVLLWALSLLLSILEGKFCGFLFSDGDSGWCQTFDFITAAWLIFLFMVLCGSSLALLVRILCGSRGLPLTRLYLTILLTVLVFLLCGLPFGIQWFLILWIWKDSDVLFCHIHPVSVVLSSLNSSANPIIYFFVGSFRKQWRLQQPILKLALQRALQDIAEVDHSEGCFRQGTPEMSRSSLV
# [2] = biological target: T2, MRGPRX2-MUT (MRGPRX2 N62S mutation) (Homo sapiens, UniProt Q96LB1, N62S); assay: Primary HTS, Ca2+ mobilization (fluorescence ratio, B-score) in HEK293-Gα15 cells stably expressing the MRGPRX2 N62S mutation; format: cell-based; settings: for B-scores (MUT): 10 μM compound, MRGPRX2-MUT (N62S) cells; for Change of B-scores (%): 10 μM
# T2 construct: expressed in transfected cells
# T2 sequence (Q96LB1 1-330 N62S): T1 sequence (Q96LB1 1-330) with N62S
# LAD2 cells = assay: β-hexosaminidase release (degranulation) in human mast cell line LAD2; format: cell-based
# Description: (§1) The human mast cell line LAD2 (Laboratory of Allergic Diseases-2) was obtained from Dean Metcalfe, MD (National Institute of Allergy and Infectious Diseases, National Institutes of Health, Bethesda, MD). […] We included two negative and two positive controls for the validation experiments in LAD2 cells. […] Additionally, vehicle control (without any drugs) was also included as the negative control. Drugs were dissolved in PBS (vehicle) and six concentrations were tested for each drug; the known MRGPRX2 agonist C48/80 (10 μg/mL) and Tween 20 (1%), which is a known mast cell activator via MRGPRX2 independent mechanism, were used as positive controls. Two-way ANOVA with the Sidak multiple comparisons test was used for statistical analysis (n=6).
# (§2) We further investigated whether these newly discovered candidate drugs can serve as agonists for MRGPRX2-dependent activation of MCs.
# [3] = system: MRGPRX2-deficient LAD2 cells; assay: β-hexosaminidase release in MRGPRX2-deficient LAD2 cells (CRISPR/Cas9); format: cell-based, human; settings: two-way ANOVA, P< 0.0001
# Description: as §1, §2
# [4] = MRGPRX2-MUT in comparison to MRGPRX2-WT cells, Supplementary Table 1
# [5] = MRGPRX2-MUT in comparison to MRGPRX2-WT cells, Table 1
# [6] = MRGPRX2-MUT versus MRGPRX2-WT cells, Supplementary Table 2
Molecule,B-scores (WT) ([1]; Supplementary Table 1),B-scores (WT) ([1]; Supplementary Table 2),B-scores (WT) ([1]; Table 1),B-scores (MUT) ([2]; Supplementary Table 1),B-scores (MUT) ([2]; Supplementary Table 2),B-scores (MUT) ([2]; Table 1),"Change of B-scores (%) [2, 4] [%]","Change of B-scores (%) [2, 5] [%]","Change of B-scores (%) [2, 6] [%]",β-hexosaminidase release (LAD2 cells; at 500 μM) [%],degranulation (β-hexosaminidase release) in LAD2 cells lacking MRGPRX2 [3],β-hexosaminidase release (LAD2 cells; at 125 μM) [%]
CN(C)CCC(c1ccc(Br)cc1)c1ccccn1 (stereo not drawn) [Brompheniramine Maleate],41.41,41.41,41.41,1.21,1.21,1.21,-97.07,-97.07,-97.07,56.43,decreased to the level of vehicle controls,
Cc1ccc(NC(=O)c2ccc(CN3CCN(C)CC3)cc2)cc1Nc1nccc(-c2cccnc2)n1 [Imatinib Mesylate],,,,,,,,,,,decreased to the level of vehicle controls,58.42
CCn1cc(C(=O)O)c(=O)c2cc(F)c(N3CCN(C)CC3)cc21.CS(=O)(=O)O [Pefloxacine Mesylate],,7.86,,,-0.79,,,,-110.02,,,
N=C(N)c1ccc(OCCCCCOc2ccc(C(=N)N)cc2)cc1 [Pentamidine],24.12,,,8.70,,,-63.92,,,,,
COc1ccc(CN(CCN(C)C)c2ccccn2)cc1 [Pyrilamine],,13.36,,,0.23,,,,-98.24,,,
CC(C)(C)NCC(O)c1cc(O)cc(O)c1.CC(C)(C)NCC(O)c1cc(O)cc(O)c1.O=S(=O)(O)O (stereo not drawn) [Terbutaline Hemisulfate],,15.97,,,1.91,,,,-88.03,,,
C[CH2][Hg][S]c1ccccc1C(=O)[O-].[Na+] [Thimerosal],18.55,,,0.33,,,-98.25,,,,,
CN(C)CCCN1c2ccccc2Sc2ccc(C(F)(F)F)cc21 [Triflupromazine Hydrochloride],,8.62,,,0.85,,,,-90.15,,,
CC(CN(C)C)CN1c2ccccc2CCc2ccccc21 (stereo not drawn) [Trimipramine Maleate],23.09,,23.09,3.48,,3.48,-84.91,-84.91,,,,
COc1ccc(CCN(C)CCCC(C#N)(c2ccc(OC)c(OC)c2)C(C)C)cc1OC (stereo not drawn) [Verapamil Hydrochloride],,9.68,,,1.41,,,,-85.46,,,
COc1ccc(CCN(C)CCCC(C#N)(c2ccc(OC)c(OC)c2)C(C)C)cc1OC (stereo not drawn) [Verapamil],,5.44,,,-1.44,,,,-126.44,,,
"Corticotropin A (SYSMEHFRWGKPVGKKRRPVKVYPNGAEDESAEAFPLEF; Corticotropin; UniProt P01189 138-176, looked up) [Adrenocorticotropic hormone (ACTH)]",37.20,,,15.06,,,-59.51,,,,,

# The next lines start with results.
B-scores (WT) ([1]; Supplementary Table 1),B-scores (WT) ([1]; Supplementary Table 2),B-scores (WT) ([1]; Table 1),B-scores (MUT) ([2]; Supplementary Table 1),B-scores (MUT) ([2]; Supplementary Table 2),B-scores (MUT) ([2]; Table 1),"Change of B-scores (%) [2, 4] [%]","Change of B-scores (%) [2, 5] [%]","Change of B-scores (%) [2, 6] [%]",Molecule,β-hexosaminidase release (LAD2 cells; at 500 μM) [%],degranulation (β-hexosaminidase release) in LAD2 cells lacking MRGPRX2 [3],β-hexosaminidase release (LAD2 cells; at 125 μM) [%]
37.48,,,0.43,,,-98.84,,,N=C(N)c1ccc(OCCCCCOc2ccc(C(=N)N)cc2)cc1 [Pentamidine Isethionate],,,
39.73,,,1.29,,,-96.75,,,CN1CCC(=C2c3ccccc3CCc3sccc32)CC1.O=C(O)CC(O)C(=O)O [Pizotyline Malate],,,
23.47,23.47,23.47,8.13,8.13,8.13,-65.37,-65.37,-65.37,CN(C)CCCN1c2ccccc2Sc2ccccc21 [Promazine Hydrochloride],,,
24.43,,24.43,3.59,,3.59,-85.30,-85.30,,CNCCCC1c2ccccc2C=Cc2ccccc21 [Protriptyline Hydrochloride],,,
22.18,,,31.66,,,42.73,,,CCOC(=O)[C@H](CCc1ccccc1)N[C@@H](C)C(=O)N1[C@H](C(=O)O)C[C@@H]2CCC[C@@H]21 [Ramipril],,,
23.94,,23.94,0.37,,0.37,-98.45,-98.45,,CO[C@H]1/C=C/O[C@@]2(C)Oc3c(C)c(O)c4c(O)c(c(/C=N/N5CCN(C)CC5)c(O)c4c3C2=O)NC(=O)/C(C)=C\C=C\[C@H](C)[C@H](O)[C@@H](C)[C@@H](O)[C@@H](C)[C@H](OC(C)=O)[C@@H]1C [Rifampin],,,
19.85,,19.85,,,-0.15,-100.76,-100.76,,CN1CCN(c2c(F)cc3c(=O)c(C(=O)O)cn4c3c2SCC4)CC1.Cl [Rufloxacin Hydrochloride],,,
,13.61,,,0.36,,,,-97.38,CC(C)(C)NCC(O)c1ccc(O)c(CO)c1 (stereo not drawn) [Salbutamol],,,
,15.97,,,0,,,,-100,O=C(O)c1cn(-c2ccc(F)cc2)c2cc(N3CCNCC3)c(F)cc2c1=O [Sarafloxacin hydrochloride],,,
,7.75,,,1.08,,,,-86.07,CN1CCN(CCCN2c3ccccc3Sc3ccc(C(F)(F)F)cc32)CC1 [Stelazine],,,
20.36,,20.36,5.11,,5.11,-74.90,-74.90,,CN1CCN(CC/C=C2/c3ccccc3Sc3ccc(S(=O)(=O)N(C)C)cc32)CC1 [Thiothixene],,,
33.23,,33.23,1.69,,1.69,-94.91,-94.91,,COc1ccc(CN(CCN(C)C)c2ncccn2)cc1 [Thonzylamine Hydrochloride],,,
27.11,,,19.11,,,-29.51,,,CC(CN(C)C)CN1c2ccccc2Sc2ccccc21.CC(CN(C)C)CN1c2ccccc2Sc2ccccc21.O=C(O)C(O)C(O)C(=O)O (stereo not drawn) [Trimeprazine Tartrate],,,
18.56,,,0.14,,,-99.27,,,COc1cc(C(=O)NCc2ccc(OCCN(C)C)cc2)cc(OC)c1OC [Trimethobenzamide Hydrochloride],,,
20.71,,20.71,0.68,,0.68,-96.71,-96.71,,Cc1ccc(/C(=C\CN2CCCC2)c2ccccn2)cc1.Cl [Triprolidine Hydrochloride],,,
20.46,,20.46,5.73,,5.73,-71.99,-71.99,,Buserelin,,,
